Laboratory results reported in patent publication US10900063B2, “Measurement of Lp-PLA2 activity” (ASAHI KASEI PHARMA CORPORATION, priority 2016, dated 2021).

Experiments:
Lp-PLA2 = molecular target: T1, Lp-PLA2 (Homo sapiens, UniProt Q13093); assay: Lp-PLA2 activity measurement in serum/plasma with reagents of the invention (PAF substrate, lyso-PAF-PLD, choline oxidase, peroxidase colorimetry); type: biochemical; settings: Example 9; for Lp-PLA2 activity value / absorbance change per minute (sensitivity): 10 mM substrate in R2; for Relative activity: PAF(C16) = 100
T1 construct: Individual serum No. 16, individual serum No. 78; from tissue; host or cells: serum and plasma (individual sera, pooled sera, heparin and citrated pooled plasma)
T1 sequence (Q13093 22-441): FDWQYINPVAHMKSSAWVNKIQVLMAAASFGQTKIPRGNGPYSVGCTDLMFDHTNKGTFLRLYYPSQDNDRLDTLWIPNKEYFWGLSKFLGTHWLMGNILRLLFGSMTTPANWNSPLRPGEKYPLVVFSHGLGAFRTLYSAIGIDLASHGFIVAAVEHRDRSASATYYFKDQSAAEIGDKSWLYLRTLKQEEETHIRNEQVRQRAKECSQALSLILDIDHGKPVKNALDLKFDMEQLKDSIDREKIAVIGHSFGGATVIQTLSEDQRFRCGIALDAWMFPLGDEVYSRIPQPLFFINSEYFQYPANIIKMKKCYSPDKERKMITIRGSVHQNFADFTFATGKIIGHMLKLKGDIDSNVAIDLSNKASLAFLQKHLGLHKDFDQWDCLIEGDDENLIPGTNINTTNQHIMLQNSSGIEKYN
Protocol: Unless otherwise specified, in these examples the Method 1 described under 1) below is used for calculating Lp-PLA2 activity values. In these examples, (nmol/min/mL) is sometimes expressed as (U/L).
This is calculated by the following formula based on the absorbance change per minute (ΔmAbs/min) as calculated from absorbance at the measuring points and the millimolar extinction coefficient (ε=36) of TODB at 546 nm.
(§1) 4 μL of the sample was mixed with 160 μL of the R1 reagent, and incubated for 5 minutes at 37° C. (measuring points 1 to 16), after which 40 μL of the R2 reagent was added to initiate a reaction (measuring point 17). The absorbance of water (blank) at the same measuring points was subtracted from the absorbance of the sample about 3.6 to 4.5 minutes after the reaction was initiated by addition of the R2 reagent (measuring points 30 to 33) to calculate the absorbance change per minute (ΔmAbs/min), and the Lp-PLA2 activity value (nmol/min/mL) was calculated according to the previous formula.
[…] was mixed with 150 μL of the R1 reagent, and incubated for 5 minutes at 37° C. (measuring points 1 to 15), after which 100 μL of the R2 reagent was added to initiate a reaction (measuring point 16). The absorbance of water (blank) at the same measuring points was subtracted from the absorbance of the sample about 2 to 3 minutes after the reaction was initiated by addition of the R2 reagent (measuring points 23 to 26) to calculate the absorbance change per minute (ΔmAbs/min), and the Lp-PLA2 activity value (nmol/min/mL) was calculated according to the previous formula. The values for absorbance change per minute (sensitivity) (ΔmAbs/min) and the Lp-PLA2 activity values (nmol/min/mL) at each pH are shown in Tables 1 and 2.
(§2) 5 μL of sample was mixed with 150 μL of the R1 reagent, and incubated for 5 minutes at 37° C. (measuring points 1 to 15), after which 100 μL of the R2 reagent was added to initiate a reaction (measuring point 16). The absorbance of water (blank) at the same measuring points was subtracted from the absorbance of the sample about 3.5 to 4.5 minutes after the reaction was initiated by addition of the R2 reagent (measuring points 27 to 30) to calculate the absorbance change per minute (ΔmAbs/min), and the Lp-PLA2 activity value (nmol/min/mL) was calculated according to the previous formula. The values for absorbance change per minute (sensitivity) (ΔmAbs/min) and Lp-PLA2 activity (nmol/min/mL) and the relative activity for each substrate given 100 as the Lp-PLA2 activity value for PAF(C16) are shown in Tables 19 to 24.
Each sample was mixed with 160 μL of the R1 reagent, and incubated for 5 minutes at 37° C., (measuring points 1 to 15), after which 40 μL of the R2 reagent was added to initiate the reaction (measuring point 16). The absorbance of water (blank) at the same measuring points was subtracted from the absorbance of the sample about 3.5 to 4.5 minutes after the reaction was initiated by addition of the R2 reagent (measuring points 27 to 30) to calculate the absorbance change per minute (ΔmAbs/min), and the Lp-PLA2 activity value (nmol/min/mL) was calculated according to the previous formula. […]
as §1, with “(measuring” for “4 μL of the sample was mixed with 160 μL of the R1 reagent, and incubated for 5 minutes at 37° C. (measuring”, “100” for “40”, “3.5” for “3.6”, “29” for “30”, “32)” for “33)”

rLp-PLA2 = molecular target: T2, rLp-PLA2 (Homo sapiens, UniProt Q13093, I42M); assay: Lp-PLA2 activity measurement with reagents of the invention, recombinant Lp-PLA2 as sample; type: biochemical; settings: Example 9, sample rLp-PLA2 (0.017 mg/mL); for Lp-PLA2 activity value / absorbance change per minute (sensitivity): 10 mM substrate in R2; for Relative activity: PAF(C16) = 100
T2 construct: histidine tag (from vector pET-19b) (N); made in house; host or cells: E. coli BL21(DE3), plasmid Lp-PLA2/pET-19b
T2 sequence (Q13093 42-441 I42M): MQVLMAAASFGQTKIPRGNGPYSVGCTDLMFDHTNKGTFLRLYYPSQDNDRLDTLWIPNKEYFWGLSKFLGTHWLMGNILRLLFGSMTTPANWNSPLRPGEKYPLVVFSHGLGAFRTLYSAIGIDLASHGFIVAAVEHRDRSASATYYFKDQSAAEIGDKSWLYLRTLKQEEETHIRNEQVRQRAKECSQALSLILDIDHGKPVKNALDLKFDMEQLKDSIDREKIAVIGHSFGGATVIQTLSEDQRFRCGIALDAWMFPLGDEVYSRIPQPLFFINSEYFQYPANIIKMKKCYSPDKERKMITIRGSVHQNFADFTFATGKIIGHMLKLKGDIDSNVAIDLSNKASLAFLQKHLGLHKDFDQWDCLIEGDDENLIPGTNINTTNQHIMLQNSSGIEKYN
Protocol: The recombinant Lp-PLA2 (rLp-PLA2) used in these examples was prepared in accordance with Reference Examples 4 to 6 based on the information disclosed in J. Biol. Chem., Oct. 27, 1995, No. 43, Vol. 270, pp. 25481-25487.
A gene optimized for E. coli (matched to E. coli codon usage) was synthesized (GenScript (NJ, USA)) based on the sequence data for a human Lp-PLA2 gene. Using the synthesized DNA as a template, a roughly 1200 bp PCR product was obtained by PCR using KOD FX (Toyobo Co., Ltd.) using as the sense primer the nucleotide sequence of SEQ ID NO: 5 in which the 42nd isoleucine was changed to the sequence of the initial methionine, with the nucleotide sequence of SEQ ID NO: 6 as the antisense primer. The resulting PCR product was digested with NdeI (Takara Bio Inc.) and BamHI (Takara Bio Inc.), and inserted into the NdeI-BamHI site of the expression vector pET-19b (Novagen) to obtain an Lp-PLA2/pET-19b expression plasmid. This expression plasmid was transformed into One shot BL21(DE3) Chemically Competent E. coli, to obtain a transformant called Lp-PLA2/pET-19b/BL21(DE3) comprising a recombinant vector containing a polynucleotide consisting of a nucleotide sequence encoding Lp-PLA2 with a histidine tag from the vector added at the N-terminus.
as §2

Row | Compound | Lp-PLA2 activity value (Lp-PLA2; sample Citrated pooled plasma) | absorbance change per minute (sensitivity) (Lp-PLA2; sample Citrated pooled plasma) | Lp-PLA2 activity value (Lp-PLA2; sample Heparin pooled plasma) | absorbance change per minute (sensitivity) (Lp-PLA2; sample Heparin pooled plasma) | Lp-PLA2 activity value (Lp-PLA2; sample Individual serum 16) | absorbance change per minute (sensitivity) (Lp-PLA2; sample Individual serum 16) | Lp-PLA2 activity value (Lp-PLA2; sample Pooled serum C) | absorbance change per minute (sensitivity) (Lp-PLA2; sample Pooled serum C) | Lp-PLA2 activity value (Lp-PLA2; sample Pooled serum J042) | absorbance change per minute (sensitivity) (Lp-PLA2; sample Pooled serum J042) | Relative activity (Lp-PLA2; sample Citrated pooled plasma) | Relative activity (Lp-PLA2; sample Heparin pooled plasma) | Relative activity (Lp-PLA2; sample Individual serum 16) | Relative activity (Lp-PLA2; sample Pooled serum C) | Relative activity (Lp-PLA2; sample Pooled serum J042) | Lp-PLA2 activity value (rLp-PLA2) | absorbance change per minute (sensitivity) (rLp-PLA2) | Relative activity (rLp-PLA2)
1 | CCCCCCCCCCCCCCCC(=O)OC[C@H](COP(=O)([O-])OCC[N+](C)(C)C)OC(C)=O [1-Palmitoyl-2-acetyl-sn-glycero-PC, 1-Palmitoyl-2-acetyl-sn-glycero-3-phosphocholine] | 34.4 nmol/min/mL | 24.3 ΔmAbs/min | 44.1 nmol/min/mL | 31.1 ΔmAbs/min | 82.3 nmol/min/mL | 58.1 ΔmAbs/min | 44.9 nmol/min/mL | 31.7 ΔmAbs/min | 45.2 nmol/min/mL | 31.9 ΔmAbs/min | 103% | 99% | 87% | 110% | 111% | 98.7 nmol/min/mL | 69.7 ΔmAbs/min | 75%
2 | CCCCCCCCCCCCCCCCOC[C@H](COP(=O)([O-])OCC[N+](C)(C)C)OC(C)=O [PAF(C16), 1-O-Hexadecyl-2-acetyl-sn-glycero-3-phosphocholine] | 33.3 nmol/min/mL | 23.5 ΔmAbs/min | 44.3 nmol/min/mL | 31.3 ΔmAbs/min | 94.8 nmol/min/mL | 66.9 ΔmAbs/min | 40.8 nmol/min/mL | 28.8 ΔmAbs/min | 40.8 nmol/min/mL | 28.8 ΔmAbs/min | 100% | 100% | 100% | 100% | 100% | 132.3 nmol/min/mL | 93.4 ΔmAbs/min | 100%
3 | CCCCCCCCCCCCCCCCCCOC[C@H](COP(=O)([O-])OCC[N+](C)(C)C)OC(C)=O [PAF(C18), 1-O-Octadecyl-2-acetyl-sn-glycero-3-phosphocholine] | 27.8 nmol/min/mL | 19.6 ΔmAbs/min | 38.7 nmol/min/mL | 27.3 ΔmAbs/min | 79.3 nmol/min/mL | 56.0 ΔmAbs/min | 35.6 nmol/min/mL | 25.1 ΔmAbs/min | 35.4 nmol/min/mL | 25.0 ΔmAbs/min | 83% | 87% | 84% | 87% | 87% | 74.1 nmol/min/mL | 52.3 ΔmAbs/min | 56%
